Series [1] has as its system Glutamate, AMPA. In words: Off-target 232600. Type of series: binding, Rat. Particulars: 10 µM. The method, then: (§1) The potential off-target activity of 10 µM (OEG2)2-IP4 was assessed against a panel of 87 enzymes, receptors, or ion channels that are used in standard safety pharmacology screens.
(§2) 3.2. Off-target screening assay
(§3) The experiments were conducted by a contract research organization (Eurofins Panlabs Discovery Services Taiwan, Ltd.) and details on the respective assays can be retrieved via the catalog number provided in Supplementary Table 11 from the company’s webpage
(§4) (https://www.eurofinsdiscoveryservices.com/). […]
(§5) At sacrifice the left tibia of animals of the rat model with dietary adenine/high-phosphate-induced uremia and VC was collected, fixed with 70% v/v EtOH and embedded in methyl methacrylate. The trabecular bone compartment is known to be the most metabolic active i.e. actively re-structured bone compartment in CKD. Therefore, histomorphometric and micro-computed tomography (µCT) analysis of bone was performed on the trabecular compartment. Tibial sections were Goldner-stained for histomorphometric analysis of the proximal metaphysis using the AxioVision Release 4.5 software, as […]
(§6) described previously5. […]

Series [2] addresses T1, Tachykinin NK1 (Homo sapiens, UniProt P25103).
T1 construct: purchased Eurofins Panlabs Discovery Services Taiwan, Ltd
The series can be described thus: Off-target 255520. In kind it is binding. The method, then: as §1, §2, §3, §4, §5, §6

Series [3] deals with Glycine, Strychnine-Sensitive. In words: Off-target 239000. In kind it is binding, Rat. Particulars: 10 µM.
The target in series [4] is T2, Cyclooxygenase COX-2 (Homo sapiens, UniProt P35354).
T2 construct: purchased Eurofins Panlabs Discovery Services Taiwan, Ltd
T2 sequence (P35354 18-604): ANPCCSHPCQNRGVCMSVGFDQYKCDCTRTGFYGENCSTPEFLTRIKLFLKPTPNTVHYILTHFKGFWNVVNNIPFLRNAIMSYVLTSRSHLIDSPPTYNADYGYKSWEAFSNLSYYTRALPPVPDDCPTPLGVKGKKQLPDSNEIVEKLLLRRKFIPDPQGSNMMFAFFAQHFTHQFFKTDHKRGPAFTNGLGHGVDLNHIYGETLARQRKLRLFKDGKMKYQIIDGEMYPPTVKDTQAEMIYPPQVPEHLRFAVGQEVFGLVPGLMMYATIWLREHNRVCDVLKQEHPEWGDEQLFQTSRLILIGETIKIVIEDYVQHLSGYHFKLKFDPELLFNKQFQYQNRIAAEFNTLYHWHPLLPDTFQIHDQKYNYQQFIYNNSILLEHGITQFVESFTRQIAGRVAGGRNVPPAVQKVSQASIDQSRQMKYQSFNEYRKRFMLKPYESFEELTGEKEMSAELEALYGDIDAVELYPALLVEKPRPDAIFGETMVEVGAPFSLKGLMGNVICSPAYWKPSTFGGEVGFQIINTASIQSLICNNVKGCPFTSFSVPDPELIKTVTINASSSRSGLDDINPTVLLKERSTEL
The series can be described thus: Off-target 118010. Type of series: biochemical. As to the method:
as §1, §2, §3, §4, §5, §6

For series [5], the system named is Calcium Channel L-Type, Phenylalkylamine. The series can be described thus: Off-target 215000. As to conditions: 10 µM. Type of series: binding, Rat. As to the method:
as §1, §2
(§7) The experiments were conducted by a contract research organization (Eurofins Panlabs Discovery
(§8) Services Taiwan, Ltd.) and details on the respective assays can be retrieved via the catalog number
(§9) provided in Supplementary Table 11 from the company’s webpage
as §4

For series [6], the target named is T3, GABAB1A (Homo sapiens, UniProt Q9UBS5).
T3 construct: purchased Eurofins Panlabs Discovery Services Taiwan, Ltd
T3 sequence (Q9UBS5 15-961 limits assumed): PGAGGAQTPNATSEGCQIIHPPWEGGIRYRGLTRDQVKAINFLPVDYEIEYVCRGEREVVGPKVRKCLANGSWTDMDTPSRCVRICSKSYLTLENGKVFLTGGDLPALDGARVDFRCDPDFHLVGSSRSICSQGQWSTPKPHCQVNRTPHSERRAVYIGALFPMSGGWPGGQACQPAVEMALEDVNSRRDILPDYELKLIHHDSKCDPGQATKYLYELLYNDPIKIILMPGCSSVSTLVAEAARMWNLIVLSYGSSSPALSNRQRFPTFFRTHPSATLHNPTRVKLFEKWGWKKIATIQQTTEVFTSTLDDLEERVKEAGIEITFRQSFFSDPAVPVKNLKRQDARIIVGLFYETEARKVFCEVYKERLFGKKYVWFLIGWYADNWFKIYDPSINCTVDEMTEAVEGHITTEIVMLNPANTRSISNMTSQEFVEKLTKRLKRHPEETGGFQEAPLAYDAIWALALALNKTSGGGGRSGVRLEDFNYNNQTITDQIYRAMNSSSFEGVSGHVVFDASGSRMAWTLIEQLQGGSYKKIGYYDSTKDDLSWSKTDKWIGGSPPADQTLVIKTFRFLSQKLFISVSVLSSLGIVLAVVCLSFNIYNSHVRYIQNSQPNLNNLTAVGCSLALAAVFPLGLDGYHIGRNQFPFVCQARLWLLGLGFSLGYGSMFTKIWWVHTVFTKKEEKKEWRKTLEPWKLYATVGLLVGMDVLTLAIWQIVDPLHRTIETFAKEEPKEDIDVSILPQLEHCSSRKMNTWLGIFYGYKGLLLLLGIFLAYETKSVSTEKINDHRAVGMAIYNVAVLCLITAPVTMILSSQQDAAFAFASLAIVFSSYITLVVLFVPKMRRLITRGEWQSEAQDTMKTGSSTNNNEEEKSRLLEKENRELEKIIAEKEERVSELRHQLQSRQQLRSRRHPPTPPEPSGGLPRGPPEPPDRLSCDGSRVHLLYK
T3 sequence (O75899 42-941 partner): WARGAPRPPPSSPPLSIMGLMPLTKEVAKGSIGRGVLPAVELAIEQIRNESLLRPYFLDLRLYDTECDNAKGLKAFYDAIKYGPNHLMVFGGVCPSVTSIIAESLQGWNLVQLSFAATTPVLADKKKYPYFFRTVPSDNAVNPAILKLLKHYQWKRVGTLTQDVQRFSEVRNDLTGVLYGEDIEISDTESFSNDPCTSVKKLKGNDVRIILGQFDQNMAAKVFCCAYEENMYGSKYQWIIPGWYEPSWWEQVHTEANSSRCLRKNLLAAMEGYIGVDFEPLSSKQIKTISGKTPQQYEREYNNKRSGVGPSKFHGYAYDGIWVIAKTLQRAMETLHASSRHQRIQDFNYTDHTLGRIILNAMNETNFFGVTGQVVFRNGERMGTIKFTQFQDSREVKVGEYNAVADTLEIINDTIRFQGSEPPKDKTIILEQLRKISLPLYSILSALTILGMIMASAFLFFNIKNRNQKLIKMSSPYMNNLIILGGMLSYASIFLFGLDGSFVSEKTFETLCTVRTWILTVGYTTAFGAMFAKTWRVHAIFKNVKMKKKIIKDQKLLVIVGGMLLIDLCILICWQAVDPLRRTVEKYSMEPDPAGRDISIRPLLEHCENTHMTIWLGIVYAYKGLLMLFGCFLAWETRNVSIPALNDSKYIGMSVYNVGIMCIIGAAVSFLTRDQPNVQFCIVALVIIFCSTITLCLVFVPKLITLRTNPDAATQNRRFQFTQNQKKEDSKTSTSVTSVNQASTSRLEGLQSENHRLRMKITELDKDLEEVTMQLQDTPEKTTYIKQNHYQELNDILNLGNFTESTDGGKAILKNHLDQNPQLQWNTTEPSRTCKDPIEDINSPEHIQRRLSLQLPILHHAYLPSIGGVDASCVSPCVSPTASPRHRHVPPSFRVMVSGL
The series can be described thus: Off-target 228610. In kind it is binding. The method, then: as §1, §2, §7, §8, §9, §4

Series [7] concerns THP-1-derived macrophages. The series can be described thus: Macrophage viability, compound without CPP2. Type of series: cell-based, human. As to the method: Cell viability was assessed using the MTS assay (CellTiter 96® Aqueous One Solution Cell Proliferation Assay, G3580; Promega, Madison, WI, USA) according to the manufacturer’s instructions. Assays using combined treatment of CPPs or CaP and test compounds were performed in 24-well plates using 20,000 cells per well and assays using test compounds only were performed in a 96-well plate format with a seeding density of 10,000 (VSMC) or 50,000 (THP-1) cells per well, respectively. For controls, cells were treated with respective complete medium only and results were calculated as % of control. […]
(n = 3 independent experiments).

Series [8] concerns the target T4, Adenosine A2A (Homo sapiens, UniProt P29274).
T4 construct: purchased Eurofins Panlabs Discovery Services Taiwan, Ltd
In words: Off-target 200610. In kind it is binding. The method, then:
as §1, §2, §3, §4, §5, §6

Series [9] deals with T5, Adenosine A1 (Homo sapiens, UniProt P30542).
T5 construct: purchased Eurofins Panlabs Discovery Services Taiwan, Ltd
T5 sequence (P30542 whole entry): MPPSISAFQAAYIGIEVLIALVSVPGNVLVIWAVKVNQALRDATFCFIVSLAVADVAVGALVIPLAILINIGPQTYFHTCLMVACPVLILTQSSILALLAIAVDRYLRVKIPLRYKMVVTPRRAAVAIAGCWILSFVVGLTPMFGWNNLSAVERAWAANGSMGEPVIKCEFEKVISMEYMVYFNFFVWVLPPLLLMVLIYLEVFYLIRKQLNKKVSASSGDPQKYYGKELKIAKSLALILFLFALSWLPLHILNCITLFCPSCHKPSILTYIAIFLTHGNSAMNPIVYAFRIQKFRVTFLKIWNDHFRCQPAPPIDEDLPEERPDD
In words: Off-target 200510. In kind it is binding. As to the method: as §1, §2, §7, §8, §9, §4

The test system of series [10] is TNFα release from THP-1-derived macrophages. In words: TNFα release from macrophages, compound without CPP2. In kind it is cell-based, human. As to conditions: without combined CPP2 treatment. The method, then: THP-1 cells were plated at a density of 200,000 cells/well in a 24-well plate, differentiated as stated above, and subsequently treated with or without CPP2 (50 μg Ca/mL) in complete medium with or without test compounds (3, 10, 30, 100 μM) for 24 h at 37 °C, 5% CO2.
Human TNF-α was assayed in cell culture supernatants using commercial multiplex immunoassay kits (U-Plex of TNF-α (custom-made multiplex plate) and Human TNF- Kit (K151QWD-1), both from MesoScaleDiscovery, Rockville, MD, USA), and corrected for total protein content using the Micro BCA^TM Protein Assay Kit. […]
Data are expressed as
mean ± s.d. (n = 3 independent experiments).

The term % Inhibition denotes the drop in the measured response relative to a control, in per cent. What is called inhibition is the drop in the measured response relative to a control, in per cent.

T4 sequence (P29274 whole entry): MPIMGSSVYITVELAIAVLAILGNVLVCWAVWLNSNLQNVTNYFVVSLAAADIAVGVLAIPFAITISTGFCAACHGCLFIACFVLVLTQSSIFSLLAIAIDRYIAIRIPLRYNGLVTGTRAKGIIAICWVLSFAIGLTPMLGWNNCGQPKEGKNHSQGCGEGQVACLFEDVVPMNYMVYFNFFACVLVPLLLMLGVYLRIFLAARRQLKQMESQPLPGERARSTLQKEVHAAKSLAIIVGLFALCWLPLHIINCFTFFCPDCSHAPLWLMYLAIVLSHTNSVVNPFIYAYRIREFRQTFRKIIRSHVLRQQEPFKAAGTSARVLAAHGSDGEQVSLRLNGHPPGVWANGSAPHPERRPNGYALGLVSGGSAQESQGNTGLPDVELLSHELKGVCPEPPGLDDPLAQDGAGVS
T1 sequence (P25103 whole entry): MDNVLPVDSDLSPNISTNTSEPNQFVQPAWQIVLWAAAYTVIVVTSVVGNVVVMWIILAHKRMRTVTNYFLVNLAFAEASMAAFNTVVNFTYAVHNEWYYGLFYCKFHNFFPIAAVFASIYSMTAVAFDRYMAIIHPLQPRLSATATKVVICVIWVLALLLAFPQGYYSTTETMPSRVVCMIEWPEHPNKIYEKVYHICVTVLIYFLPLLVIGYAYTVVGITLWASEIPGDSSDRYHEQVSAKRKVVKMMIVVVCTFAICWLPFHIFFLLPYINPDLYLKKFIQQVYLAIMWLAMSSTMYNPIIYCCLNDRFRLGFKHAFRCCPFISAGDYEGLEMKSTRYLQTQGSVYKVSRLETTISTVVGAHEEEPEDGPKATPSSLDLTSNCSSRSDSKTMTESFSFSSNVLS

Regarding `COCCOCCO[C@@H]1[C@@H](OP(=O)(O)O)[C@H](OCCOCCOC)[C@@H](OP(=O)(O)O)[C@@H](OP(=O)(O)O)[C@H]1OP(=O)(O)O` [(OEG2)2-IP4, 4,6-Di-O-(methoxy-diethyleneglycol)-myo-inositol-1,2,3,5-tetrakis(phosphate)], the figures for the “% Inhibition” value in [1], in series [3] and in [5] were 8%, -2% and -4%, respectively. Moreover, the inhibition at 10 µM is -14% in [2]; 8% in [4]; -7% in series [6]; 5% in series [8]; 4% in series [9]. Also, the macrophage viability result in series [7] is “does not alter viability”. Further, the “increase in TNFα levels in supernatants” value in [10] is on record as “not observed”.

The record behind these values is paper PMC7002685, “Inhibition of vascular calcification by inositol phosphates derivatized with ethylene glycol oligomers” (Nature Communications, 2020).
